Here are results for one compound from ChEMBL document CHEMBL1137781, “Synthesis and preclinical evaluation of novel PET probes for P-glycoprotein function and expression” (J Med Chem, 2009).

The subject of data set [1] is NCI/ADR-RES. As to the kind of experiment: Inhibition of Pgp in human MCF7/ADR cells assessed as increase in doxorubicin accumulation at 20 uM relative to untreated control. The format is cell-based.
Data set [2] concerns NCI/ADR-RES. As to the kind of experiment: Inhibition of Pgp in human MCF7/ADR cells assessed as potentiation of doxorubicin-induced cytotoxicity at 20 uM relative to untreated control. The format is cell-based. Also noted: Activity: scale not given: the % may be the effect or the level left.
For the next data set, the system named is Caco-2. As to the kind of experiment: Ratio of permeability from basolateral to apical side over apical to basolateral side in human Caco-2 cells. The format is ADME, cell-based.

Molecules are shown by their SMILES.

For `COc1cc2c(cc1OC)CN(CCCC1CCCc3c(OC)cccc31)CC2` (stereo not drawn), in the data set with NCI/ADR-RES [1], the fold change (FC) came to 4.8. In addition, in the data set with NCI/ADR-RES [2], the Activity came out at 85%. Further, the Ratio in the data set with Caco-2 amounted to 18.
